In patent US9199946B2, “Pyrimidinone carboxamide inhibitors of endothelial lipase” (BRISTOL-MYERS SQUIBB COMPANY, priority 2012, dated 2015):

molecular target: T1, Endothelial lipase (EL) (Homo sapiens, UniProt Q9Y5X9); test: Endothelial lipase (EL) enzymatic assay with fluorescent substrate A10070 in DMPG vesicles; assay type: biochemical; details: conditioned media from HT-1080 cells overexpressing endogenous EL; 20 min preincubation at 37° C.; read-out: EL IC50
T1 construct: HT-1080 cells, which were transformed by RAGE technology (Athersys) to overexpress endogenous EL; endogenous in cells; conditioned medium used as the enzyme source
T1 sequence (Q9Y5X9 21-500): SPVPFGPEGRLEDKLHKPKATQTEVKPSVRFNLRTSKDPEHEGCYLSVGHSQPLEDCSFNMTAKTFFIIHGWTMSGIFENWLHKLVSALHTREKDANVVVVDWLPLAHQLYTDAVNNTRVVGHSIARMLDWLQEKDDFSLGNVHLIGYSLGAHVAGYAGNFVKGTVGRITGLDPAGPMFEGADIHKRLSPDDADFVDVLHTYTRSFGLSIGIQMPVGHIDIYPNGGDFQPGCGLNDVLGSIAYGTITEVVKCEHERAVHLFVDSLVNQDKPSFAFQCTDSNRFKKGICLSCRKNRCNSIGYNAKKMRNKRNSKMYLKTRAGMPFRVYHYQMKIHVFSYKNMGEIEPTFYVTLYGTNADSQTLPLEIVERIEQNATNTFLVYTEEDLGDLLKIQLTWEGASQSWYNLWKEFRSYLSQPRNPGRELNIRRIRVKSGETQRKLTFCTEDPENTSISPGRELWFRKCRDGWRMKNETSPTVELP
Method in brief: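 EL activity was followed as a fluorescence rate (488/530 nm, reads every 20 s for 10 min, linear slope) on A10070 doped at 0.05 mole fraction into sonicated DMPG vesicles. Compound was first incubated 20 min at 37 °C, pH 8.0 HEPES/CaCl2 buffer, with conditioned media from EL-overexpressing HT-1080 cells.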

Compound	IC50 [µM]
Nc1c(C(=O)NC2CCC(NC(=O)Cc3nc4ccc(-c5ccccc5)cc4s3)C2)[nH]c(=O)[nH]c1=O (stereo not drawn) [Example 135, 5-amino-2,6-dioxo-N-(3-(2-(6-phenylbenzo[d]thiazol-2-yl)acetamido)cyclopentyl)-1,2,3,6-tetrahydropyrimidine-4-carboxamide]	3.68
O=C(NC1CCCC(c2cnn(Cc3ccccc3)c2)C1)c1[nH]c(=O)[nH]c(=O)c1O (racemic) [Example 289, N-(3-(1-benzyl-1H-pyrazol-4-yl)cyclohexyl)-5-hydroxy-2,6-dioxo-1,2,3,6-tetrahydropyrimidine-4-carboxamide]	0.01
CCOC(=O)N1CCC(NC(=O)c2[nH]c(=O)[nH]c(=O)c2N)c2ccccc21 (racemic) [Example 25, ethyl 4-(5-amino-2,6-dioxo-1,2,3,6-tetrahydropyrimidine-4-carboxamido)-3,4-dihydroqiiinoline-1(2H)-carboxylate]	1.06
COc1ccc2c(c1)C(NC(=O)c1[nH]c(=O)[nH]c(=O)c1N)CC2 (single isomer, unassigned) [Example 72, 5-amino-N-(6-methoxy-2,3-dihydro-1H-inden-1-yl)-2,6-dioxo-1,2,3,6-tetrahydropyrimidine-4-carboxamide]	22.2
Nc1c(C(=O)N[C@H]2CC[C@@H](C(=O)N[C@@H]3CCCc4c(OCc5ccccc5)cccc43)C2)[nH]c(=O)[nH]c1=O [Example 136, 5-amino-N-((1S,3R)-3-((R)-5-(benzyloxy)-1,2,3,4-tetrahydronaphthalen-1-ylcarbamoyl)cyclopentyl)-2,6-dioxo-1,2,3,6-tetrahydropyrimidine-4-carboxamide]	0.019

same assay, conditions: range observed in the EL assay; read-out: EL IC50 values

Compound	IC50 [µM]
O=C(N[C@H]1C[C@@H](c2ccccc2)c2ccccc21)c1[nH]c(=O)[nH]c(=O)c1O [Example 247, 5-hydroxy-2,6-dioxo-N-((1S,3S)-3-phenyl-2,3-dihydro-1H-inden-1-yl)-1,2,3,6-tetrahydropyrimidine-4-carboxamide]	≤ 10
O=C(N[C@H]1CCCc2ccccc21)c1[nH]c(=O)[nH]c(=O)c1O [Example 245, (S)-5-hydroxy-2,6-dioxo-N-(1,2,3,4-tetrahydronaphthalen-1-yl)-1,2,3,6-tetrahydropyrimidine-4-carboxamide]	≤ 10
CC(=O)Nc1ccccc1-c1ccc([C@@H]2CC[C@H](NC(=O)c3[nH]c(=O)[nH]c(=O)c3N)C2)cc1 [Example 162, N-((1S,3R)-3-(2′-acetamidobiphenyl-4-yl)cyclopentyl)-5-amino-2,6-dioxo-1,2,3,6-tetrahydropyrimidine-4-carboxamide]	≤ 10
Nc1c(C(=O)N[C@H]2CCc3c(Br)cccc32)[nH]c(=O)[nH]c1=O [Example 60, (S)-5-amino-N-(4-bromo-2,3-dihydro-1H-inden-1-yl)-2,6-dioxo-1,2,3,6-tetrahydropyrimidine-4-carboxamide]	≤ 10
O=C(N[C@H]1CC[C@@H](c2ccccc2)CC1)c1[nH]c(=O)[nH]c(=O)c1NC1CCN(Cc2ccccc2)C1 (stereo partly drawn) [Example 223, 5-(1-benzylpyrrolidin-3-ylamino)-2,6-dioxo-N-(cis-4-phenylcyclohexyl)-1,2,3,6-tetrahydropyrimidine-4-carboxamide]	≤ 10
Nc1c(C(=O)NC2CCC(NC(=O)Cc3nc4ccc(-c5ccccc5)cc4s3)C2)[nH]c(=O)[nH]c1=O (stereo not drawn) [Example 135, 5-amino-2,6-dioxo-N-(3-(2-(6-phenylbenzo[d]thiazol-2-yl)acetamido)cyclopentyl)-1,2,3,6-tetrahydropyrimidine-4-carboxamide]	≤ 10
O=C(NC1CCCC(c2cnn(Cc3ccccc3)c2)C1)c1[nH]c(=O)[nH]c(=O)c1O (racemic) [Example 289, N-(3-(1-benzyl-1H-pyrazol-4-yl)cyclohexyl)-5-hydroxy-2,6-dioxo-1,2,3,6-tetrahydropyrimidine-4-carboxamide]	≤ 10
COc1cccc2c1C(NC(=O)c1[nH]c(=O)[nH]c(=O)c1N)CCC2 (single isomer, unassigned; enantiomer a) [Example 201, 5-amino-N-(8-methoxy-1,2,3,4-tetrahydronaphthalen-1-yl)-2,6-dioxo 1,2,3,6-tetrahydropyrimidine-4-carboxamide (Enantiomer A)]	≤ 10
Nc1c(C(=O)NC2CCCCC2C2CCCCC2)[nH]c(=O)[nH]c1=O (stereo not drawn) [Example 59, 5-amino-N-(bi(cyclohexan)-2-yl)-2,6-dioxo-1,2,3,6-tetrahydropyrimidine-4-carboxamide]	≤ 10
Nc1c(C(=O)N[C@H]2CC[C@@H](c3ccccc3)C2)[nH]c(=O)[nH]c1=O [Example 78, 5-amino-2,6-dioxo-N-((1S,3R)-3-phenylcyclopentyl)-1,2,3,6-tetrahydropyrimidine-4-carboxamide]	≤ 10
Cc1cc(Cl)nc(N2CCCC(NC(=O)c3[nH]c(=O)[nH]c(=O)c3N)C2)n1 (stereo not drawn) [Example 185, 5-amino-N-(1-(4-chloro-6-methylpyrimidin-2-yl)piperidin-3-yl)-2,6-dioxo-1,2,3,6-tetrahydropyrimidine-4-carboxamide]	≤ 10
CCOC(=O)N1CCC(NC(=O)c2[nH]c(=O)[nH]c(=O)c2N)c2ccccc21 (racemic) [Example 25, ethyl 4-(5-amino-2,6-dioxo-1,2,3,6-tetrahydropyrimidine-4-carboxamido)-3,4-dihydroqiiinoline-1(2H)-carboxylate]	≤ 10
O=C(Nc1ccc2c(c1)CCC[C@H]2NC(=O)c1[nH]c(=O)[nH]c(=O)c1O)c1ccccc1 [Example 288, (R)-N-(6-benzamido-1,2,3,4-tetrahydronaphthalen-1-yl)-5-hydroxy-2,6-dioxo-1,2,3,6-tetrahydropyrimidine-4-carboxamide]	≤ 10
O=C(N[C@H]1CC[C@@H](c2ccccc2)CC1)c1[nH]c(=O)[nH]c(=O)c1NCCN1CCCCC1 [Example 237, 2,6-dioxo-N-((1s,4s)-4-phenylcyclohexyl)-5-(2-(piperidin-1-yl)ethylamino)-1,2,3,6-tetrahydropyrimidine-4-carboxamide]	≤ 10
COc1cccc2c1CCC[C@H]2NC(=O)c1[nH]c(=O)[nH]c(=O)c1N [Example 103, (R)-5-amino-N-(5-methoxy-1,2,3,4-tetrahydronaphthalen-1-yl)-2,6-dioxo-1,2,3,6-tetrahydropyrimidine-4-carboxamide]	≤ 10
Nc1c(C(=O)N[C@H]2CC[C@@H](c3ccc(-c4cccc(CO)c4)cc3)C2)[nH]c(=O)[nH]c1=O [Example 178, 5-amino-N-((1S,3R)-3-(3′-(hydroxymethyl)biphenyl-4-yl)cyclopentyl)-2,6-dioxo-1,2,3,6-tetrahydropyrimidine-4-carboxamide]	≤ 10
Cn1c(=O)[nH]c(C(=O)N[C@H]2CC[C@@H](c3ccccc3)CC2)c(O)c1=O [Example 242, 5-hydroxy-1-methyl-2,6-dioxo-N-(cis-4-phenylcyclohexyl)-1,2,3,6-tetrahydropyrimidine-4-carboxamide]	≤ 10
O=C(N[C@@H]1CC[C@@H](C(=O)NCc2nc3ccccc3s2)C1)c1[nH]c(=O)[nH]c(=O)c1O [Example 296, N-((1R,3R)-3-(benzo[d]thiazol-2-ylmethylcarbamoyl)cyclopentyl)-5-hydroxy-2,6-dioxo-1,2,3,6-tetrahydropyrimidine-4-carboxamide]	≤ 10
Nc1c(C(=O)N[C@H]2CC[C@@H](c3ccc(-c4ccccc4CO)cc3)C2)[nH]c(=O)[nH]c1=O [Example 174, 5-amino-N-((1S,3R)-3-(2′-(hydroxymethyl)biphenyl-4-yl)cyclopentyl)-2,6-dioxo-1,2,3,6-tetrahydropyrimidine-4-carboxamide]	≤ 10
Nc1c(C(=O)N[C@H]2CC[C@H](c3ccccc3)C2)[nH]c(=O)[nH]c1=O [Example 76, 5-amino-2,6-dioxo-N-((1S,3S)-3-phenylcyclopentyl)-1,2,3,6-tetrahydropyrimidine-4-carboxamide]	≤ 10
Nc1c(C(=O)N[C@H]2CC[C@@H](C(=O)N[C@@H]3CCCc4c(OCc5ccccc5)cccc43)C2)[nH]c(=O)[nH]c1=O [Example 136, 5-amino-N-((1S,3R)-3-((R)-5-(benzyloxy)-1,2,3,4-tetrahydronaphthalen-1-ylcarbamoyl)cyclopentyl)-2,6-dioxo-1,2,3,6-tetrahydropyrimidine-4-carboxamide]	≤ 10
Nc1c(C(=O)N[C@H]2CC[C@@H](NC(=O)OCc3ccccc3)CC2)[nH]c(=O)[nH]c1=O [Example 119, benzyl cis-4-(5-amino-2,6-dioxo-1,2,3,6-tetrahydropyrimidine-4-carboxamido)cyclohexylcarbamate]	≤ 10
